# Like-named read-outs stand apart in the source and are kept apart here. Marks after values point to notes of the source that are not given here.
# Tests used:
# [1] = ref PharmaPendium, cited from earlier work
# [2] = system: hiPSC-derived neurons co-cultured with human primary astrocytes in 3D; assay: Ca2+ transient oscillation assay (FDSS), 3D spheroids; assay type: cell-based; conditions: 60 min
# Excerpt: (§1) In this study, we used cryopreserved excitatory neurons that were differentiated from human induced pluripotent stem cells (hiPSCs; Cat #: EX-SeV-CW50065) (Elixirgen Scientific, Inc., Baltimore, MD, USA). The hiPSCs used, namely, CW50065 were derived from a healthy person and distributed by the California Institute of Regenerative Medicine Human Induced Pluripotent Stem Cell Repository. Human iPSC-derived excitatory neurons were differentiated from CW50065 using a proprietary cocktail of differentiation-inducing factors called Quick-Neuron™ EX-SeV (Batch number: EX-SeV-CW50065-L; Elixirgen Scientific, Inc.), cryopreserved 3 days after differentiation induction and distributed. Human iPSC-derived excitatory neurons were recovered from cryopreservation and maintained essentially as instructed by the manufacturer.
# (§2) Cryopreserved human primary astrocytes (#N7805100, Thermo Fisher Scientific, Waltham, MA, USA) were recovered as instructed by the manufacturer and seeded in a 10 cm dish at the density of 2,000,000 cells. The culture was maintained using the Human Astrocytes Kit (#N7805200, Thermo Fisher Scientific) for 12 days. Half of the culture medium was replaced with fresh medium every 2–3 days during the culture period. These astrocytes were harvested using StemPro™ Accutase™ Cell Dissociation Reagent (#A1110501, Thermo Fisher Scientific) when they reached confluency. These cells were cryopreserved in STEM-CELLBANKER® GMP grade (ZENOGEN PHARMA, Kohriyama, Fukushima Japan) at the density of 2,000,000 cells per vial as working stocks for co-culture with neurons in 2D and 3D conditions described below. After a working stock was recovered, astrocytes were directly mixed with hiPSC-derived neurons for plating without further expansion.
# We used U-shaped-bottom 96-well plates (#174925, Thermo Fisher Scientific) without any prior coating to make a spheroid in each well. Neurons and astrocytes were seeded and maintained as described for 2D cultures, except for the following modifications. First, neurons and astrocytes were seeded in each well of the 96-well plates at the density of 8000 hiPSC neurons with 8000 human primary astrocytes (8000)/well (ratio 1:1). Second, when the differentiation of excitatory neurons was completed one week after seeding, cells were fed with BrainPhys^TM Neuronal Medium (#05793, […] Technologies, Vancouver, BC, Canada) supplemented with 2% SM1 Neuronal Supplement, 1% N2 Supplement-A, and 10% Neuron culture medium for 5 weeks.
# Cells maintained as spheroids (3D) in the U-shaped-bottom 96-well plates were transferred into 384-well spheroid plates (#4516, Merck, Corning, NY, USA) with 25 µL of the culture medium. A Ca^2+-indicating dye solution including […] was prepared using the EarlyTox™ Cardiotoxicity Kit (#R8211, Molecular Devices, LLC, San Jose, CA, USA) according to the manufacturer. Then, the same volume of the dye solution was dispensed into each well.
# (§3) Prior to the fluorescence measurements, all wells to be measured were treated with 0.04% dimethyl sulfoxide (DMSO) to stabilize the oscillation signal. The first recording started 10 min after the addition of DMSO for each plate for 20 min. The effects of the test compound were recorded again starting 60 min after the administration of compounds, for 20 min.
# Twenty-five compounds (Table 1) were first dissolved in either DMSO (most compounds) or distilled water depending on the compound, and further diluted with PBS to produce stock solutions concentrated 10-fold. Then, 5 μL of each compound solution was injected into each well using an automatic pipetting robot (#4505, ASSIST PLUS pipetting robot, Integra Biosciences Corp., Hudson, NH, USA), so that the final concentration of each compound was 1-fold nominal in the well.
# [3] = system: hiPSC-derived neurons co-cultured with human primary astrocytes in 2D; assay: Ca2+ transient oscillation assay (FDSS), 2D co-culture; assay type: cell-based; conditions: for activation at 1.11 µM / activation at 3.33 µM / activation at 10 µM / activation at 30 µM / activation at 0.37 µM: Homo sapiens, 1 h, 60 min
# Excerpt: as §1, §2
# Live neurons (hiPSC neurons) and human primary astrocytes were recovered from cryopreservation as described above and seeded in each well of 384-well plates at the density of 10,000 cells (HiPSC-cortical neurons) and human primary astrocytes at 2500 cells (ratio 4:1). These co-cultures were maintained under the medium conditions recommended by the manufacturer, namely Medium N(G2P), to complete the differentiation of excitatory neurons for the first week. […] Half of the culture medium was replaced with fresh medium every 3–4 days during the culture period.
# After the incubation, the culture medium containing Cal-520 was replaced with 50 μL of HBSS supplemented with 0.1 mM MgCl2, 2 mM CaCl2, 10 mM HEPES, and 10 mM glucose and incubated at 37 ℃ for 15 min.
# as §3
# Twenty-five compounds (Table 1) were first dissolved in either DMSO (most compounds) or distilled water depending on the compound, and further diluted with PBS to produce stock solutions concentrated 10-fold. […] The final concentration of DMSO was adjusted to 0.1%. Changes in the fluorescence intensity (FI) produced by Ca^2+ flux were measured at 37 °C for all wells of a 384-well plate simultaneously using the FDSS/µCell system (#C13299, Hamamatsu Photonics, Hamamatsu, Shizuoka, Japan). The excitation and the emission wavelengths were 470 nm and 540 nm, respectively. The recording duration was 20 min with a sampling frequency of 2 Hz for cells cultured under 2D conditions and 10 Hz for cells cultured under 3D conditions.
# [4] = Table 1, peak plasma concentration in men, free therapeutic Cmax
# [5] = read-out: Area under the curve - 2D Mean
# [6] = read-out: Peak amplitude - 2D Mean
# [7] = read-out: Peak-to-peak interval - 2D Mean
structure (smiles),measurement,setting,value
CC(=O)Nc1ccc(O)cc1 [Acetaminophen],Free Cmax,[1]; [4],460 nM
same,Free Cmax,"[1]; Table 2, highest plasma concentration in humans after the therapeutic dose",460 nM
same,Area under the curve - 3D Mean,[2]; 1.11 µM,104.3 % change from baseline
same,Peak Number—3D Mean,[2]; 1.11 µM,2.2 % change from baseline
same,Peak amplitude - 3D Mean,[2]; 1.11 µM,97.4 % change from baseline
same,Peak width - 3D Mean,[2]; 1.11 µM,0.6 % change from baseline
same,Peak-to-peak interval - 3D Mean,[2]; 1.11 µM,12.7 % change from baseline
same,Area under the curve - 3D Mean,[2]; 3.33 µM,121.7 % change from baseline
same,Peak Number—3D Mean,[2]; 3.33 µM,−3.0 % change from baseline
same,Peak amplitude - 3D Mean,[2]; 3.33 µM,106.4 % change from baseline
same,Peak width - 3D Mean,[2]; 3.33 µM,5.9 % change from baseline
same,Peak-to-peak interval - 3D Mean,[2]; 3.33 µM,17.4 % change from baseline
same,Area under the curve - 3D Mean,[2]; 10 µM,122.4 % change from baseline
same,Peak Number—3D Mean,[2]; 10 µM,12.5 % change from baseline
same,Peak amplitude - 3D Mean,[2]; 10 µM,108.6 % change from baseline
same,Peak width - 3D Mean,[2]; 10 µM,6.3 % change from baseline
same,Peak-to-peak interval - 3D Mean,[2]; 10 µM,−6.2 % change from baseline
same,Area under the curve - 3D Mean,[2]; 30 µM,132.0 % change from baseline
same,Peak Number—3D Mean,[2]; 30 µM,47.2 * % change from baseline
same,Peak amplitude - 3D Mean,[2]; 30 µM,113.9 % change from baseline
same,Peak width - 3D Mean,[2]; 30 µM,9.0 % change from baseline
same,Peak-to-peak interval - 3D Mean,[2]; 30 µM,−8.8 % change from baseline
same,effect on peak count within expected therapeutic exposure levels,[3]; 2D,did not significantly reduce peak count
same,"effect on Ca2+ neuronal oscillations / peak count at 30 µM, in words","[3]; 2D, 30 µM, listed as Paracetamol",did reduce
same,activation at 1.11 µM,[3]; [5],23%
same,activation at 1.11 µM,[3]; read-out: Peak Number—2D Mean,-11.7%
same,activation at 1.11 µM,[3]; [6],8.8%
same,activation at 1.11 µM,[3]; read-out: Peak width - 2D Mean,13%
same,activation at 1.11 µM,[3]; [7],34%
same,activation at 3.33 µM,[3]; [5],35.8%
same,activation at 3.33 µM,[3]; read-out: Peak Number—2D Mean,-25%
same,activation at 3.33 µM,[3]; [6],12.3%
same,activation at 3.33 µM,[3]; read-out: Peak width - 2D Mean,34.3%
same,activation at 3.33 µM,[3]; [7],-35.3%
same,activation at 10 µM,[3]; [5],13.2%
same,activation at 10 µM,[3]; read-out: Peak Number—2D Mean,-18.2%
same,activation at 10 µM,[3]; [6],-0.3%
same,activation at 10 µM,[3]; read-out: Peak width - 2D Mean,16.2%
same,activation at 10 µM,[3]; [7],-14.5%
same,activation at 30 µM,"[3]; 30 µM, read-out: Area under the curve - 2D Mean",-93.2%
same,activation at 30 µM,"[3]; 30 µM, read-out: Peak Number—2D Mean",-94.5%
same,activation at 30 µM,"[3]; 30 µM, read-out: Peak amplitude - 2D Mean",-89.8%
same,activation at 30 µM,"[3]; 30 µM, read-out: Peak width - 2D Mean",-92.5%
same,activation at 30 µM,"[3]; 30 µM, read-out: Peak-to-peak interval - 2D Mean",-100%
CCn1cc(C(=O)O)c(=O)c2cc(F)c(N3CCNCC3)nc21 [Enoxacin],Free Cmax,[1]; [4],1000 to 4000 nM
same,Area under the curve - 3D Mean,[2]; 0.37 µM,115.6 % change from baseline
same,Peak Number—3D Mean,[2]; 0.37 µM,−16.9 % change from baseline
same,Peak amplitude - 3D Mean,[2]; 0.37 µM,106.8 % change from baseline
same,Peak width - 3D Mean,[2]; 0.37 µM,3.2 % change from baseline
same,Peak-to-peak interval - 3D Mean,[2]; 0.37 µM,30.9 % change from baseline
same,Area under the curve - 3D Mean,[2]; 1.11 µM,124.6 % change from baseline
same,Peak Number—3D Mean,[2]; 1.11 µM,5.5 % change from baseline
same,Peak amplitude - 3D Mean,[2]; 1.11 µM,123.3 % change from baseline
same,Peak width - 3D Mean,[2]; 1.11 µM,−2.2 % change from baseline
same,Peak-to-peak interval - 3D Mean,[2]; 1.11 µM,−0.7 % change from baseline
same,Area under the curve - 3D Mean,[2]; 3.33 µM,139.4 % change from baseline
same,Peak Number—3D Mean,[2]; 3.33 µM,13.2 % change from baseline
same,Peak amplitude - 3D Mean,[2]; 3.33 µM,129.6 % change from baseline
same,Peak width - 3D Mean,[2]; 3.33 µM,3.0 % change from baseline
same,Peak-to-peak interval - 3D Mean,[2]; 3.33 µM,−1.3 % change from baseline
same,Area under the curve - 3D Mean,[2]; 10 µM,114.6 % change from baseline
same,Peak Number—3D Mean,[2]; 10 µM,2.2 % change from baseline
same,Peak amplitude - 3D Mean,[2]; 10 µM,116.3 % change from baseline
same,Peak width - 3D Mean,[2]; 10 µM,−1.1 % change from baseline
same,Peak-to-peak interval - 3D Mean,[2]; 10 µM,−1.1 % change from baseline
same,activation at 0.37 µM,[3]; [5],25.5%
same,activation at 0.37 µM,[3]; read-out: Peak Number—2D Mean,1.3%
same,activation at 0.37 µM,[3]; [6],7.8%
same,activation at 0.37 µM,[3]; read-out: Peak width - 2D Mean,18.3%
same,activation at 0.37 µM,[3]; [7],18%
same,activation at 1.11 µM,[3]; [5],41%
same,activation at 1.11 µM,[3]; read-out: Peak Number—2D Mean,2.3%
same,activation at 1.11 µM,[3]; [6],5.3%
same,activation at 1.11 µM,[3]; read-out: Peak width - 2D Mean,45.8%
same,activation at 1.11 µM,[3]; [7],1.3%
same,activation at 3.33 µM,[3]; [5],47.3%
same,activation at 3.33 µM,[3]; read-out: Peak Number—2D Mean,5.5%
same,activation at 3.33 µM,[3]; [6],13.5%
same,activation at 3.33 µM,[3]; read-out: Peak width - 2D Mean,39%
same,activation at 3.33 µM,[3]; [7],12.7%
same,activation at 10 µM,[3]; [5],49.3%
same,activation at 10 µM,[3]; read-out: Peak Number—2D Mean,2%
same,activation at 10 µM,[3]; [6],11.3%
same,activation at 10 µM,[3]; read-out: Peak width - 2D Mean,49%
same,activation at 10 µM,[3]; [7],-3%

# Reference: paper PMC10046961, “High-Throughput Screening Assay for Detecting Drug-Induced Changes in Synchronized Neuronal Oscillations and Potential Seizure Risk Based on Ca^2+ Fluorescence Measurements in Human Induced Pluripotent Stem Cell (hiPSC)-Derived Neuronal 2D and 3D Cultures” (Cells, 2023)
